From PubChem BioAssay AID1963849 (Molecular Pharmacology Branch, DTP, NCI, 2024)

Tested on: 299254-011-R-J1-PDC complex spheroid viability
Experiment: Anticancer human tumor 299254-011-R-J1-PDC patient-derived melanoma cell line growth inhibition [POLQ]
Details: for IC50: curve of first compound; for viability, T/C: stronger effect = lower value
In short: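 PDC + HUVEC + MSC complex spheroids; POLQ inhibitors ± partner drugs; top conc. at/near clinical Cmax, else 10 microM (SN-38 1 microM), half-log dilutions; 37 degrees C, 5% CO2.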

[1] = second compound 0.0316 µM, first compound 0.00316 µM
[2] = second compound 0.0316 µM, first compound 0.01 µM
[3] = second compound 0.0316 µM, first compound 0.0316 µM
[4] = second compound 0.0316 µM, first compound 0.1 µM
[5] = second compound 0.0316 µM, first compound 0.316 µM
[6] = second compound 0.0316 µM, first compound 1 µM
[7] = second compound 0.1 µM, first compound 0.00316 µM
[8] = second compound 0.1 µM, first compound 0.01 µM
[9] = second compound 0.1 µM, first compound 0.0316 µM
[10] = second compound 0.1 µM, first compound 0.1 µM
[11] = second compound 0.1 µM, first compound 0.316 µM
[12] = second compound 0.1 µM, first compound 1 µM
[13] = second compound 0.316 µM, first compound 0.00316 µM
[14] = second compound 0.316 µM, first compound 0.01 µM
[15] = second compound 0.316 µM, first compound 0.0316 µM
[16] = second compound 0.316 µM, first compound 0.1 µM
[17] = second compound 0.316 µM, first compound 0.316 µM
[18] = second compound 0.316 µM, first compound 1 µM
[19] = second compound 1 µM, first compound 0.00316 µM
[20] = second compound 1 µM, first compound 0.01 µM
[21] = second compound 1 µM, first compound 0.0316 µM
[22] = second compound 1 µM, first compound 0.1 µM
[23] = second compound 1 µM, first compound 0.316 µM
[24] = second compound 1 µM, first compound 1 µM
[25] = second compound 3.16 µM, first compound 0.00316 µM
[26] = second compound 3.16 µM, first compound 0.01 µM
[27] = second compound 3.16 µM, first compound 0.0316 µM
[28] = second compound 3.16 µM, first compound 0.1 µM
[29] = second compound 3.16 µM, first compound 0.316 µM
[30] = second compound 3.16 µM, first compound 1 µM
[31] = second compound 10 µM, first compound 0.00316 µM
[32] = second compound 10 µM, first compound 0.01 µM
[33] = second compound 10 µM, first compound 0.0316 µM
[34] = second compound 10 µM, first compound 0.1 µM
[35] = second compound 10 µM, first compound 0.316 µM
[36] = second compound 10 µM, first compound 1 µM
[37] = second compound 0.0316 µM, first compound 3.16 µM
[38] = second compound 0.0316 µM, first compound 10 µM
[39] = second compound 0.1 µM, first compound 3.16 µM
[40] = second compound 0.1 µM, first compound 10 µM
[41] = second compound 0.316 µM, first compound 3.16 µM
[42] = second compound 0.316 µM, first compound 10 µM
[43] = second compound 1 µM, first compound 3.16 µM
[44] = second compound 1 µM, first compound 10 µM
[45] = second compound 3.16 µM, first compound 3.16 µM
[46] = second compound 3.16 µM, first compound 10 µM
[47] = second compound 10 µM, first compound 3.16 µM
[48] = second compound 10 µM, first compound 10 µM
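Also: spheroids exposed to drugs for one week before measurement.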
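For viability, T/C in this document: percent viability relative to DMSO vehicle control taken as 100%.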

`CCc1c2c(nc3ccc(O)cc13)-c1cc3c(c(=O)n1C2)COC(=O)[C@]3(O)CC` + Nc1ccc(C#CCN(C(=O)Cc2ncc(C(F)(F)F)cc2C(F)(F)F)c2ccc(F)cc2)nn1 was tested, and the IC50 (second compound 0.0316 µM) was greater than 1000 nM, the IC50 (second compound 0.1 µM) was greater than 1000 nM and the IC50 (second compound 0.316 µM) was greater than 1000 nM. The IC50 (second compound 1 µM) was greater than 1000 nM, the IC50 (second compound 3.16 µM) was greater than 1000 nM and the IC50 (second compound 10 µM) was greater than 1000 nM. For the same compound, the viability, T/C [1] was 94.8%, the viability, T/C [2] was 85.3% and the viability, T/C [3] was 81.9%. It also gave a viability, T/C [4] of 75.5%, a viability, T/C [5] of 76.8% and a viability, T/C [6] of 63.9%. It also gave a viability, T/C [7] of 89.7%, a viability, T/C [8] of 85.5% and a viability, T/C [9] of 72.2%. For the same compound, the viability, T/C [10] was 77.2%, the viability, T/C [11] was 68.7% and the viability, T/C [12] was 57.9%. For the same compound, the viability, T/C [13] was 108%, the viability, T/C [14] was 81.7% and the viability, T/C [15] was 69.5%. It also gave a viability, T/C [16] of 79%, a viability, T/C [17] of 71% and a viability, T/C [18] of 58.5%. The viability, T/C [19] was 111%, the viability, T/C [20] was 85.3% and the viability, T/C [21] was 73.9%. The viability, T/C [22] was 79.5%, the viability, T/C [23] was 63.6% and the viability, T/C [24] was 55.6%. The viability, T/C [25] was 97.6%, the viability, T/C [26] was 84.1% and the viability, T/C [27] was 81.9%. It also gave a viability, T/C [28] of 72.3%, a viability, T/C [29] of 72.9% and a viability, T/C [30] of 59.9%. For the same compound, the viability, T/C [31] was 96.4%, the viability, T/C [32] was 73.2% and the viability, T/C [33] was 68.7%. For the same compound, the viability, T/C [34] was 71.1%, the viability, T/C [35] was 61.9% and the viability, T/C [36] was 61.5%.

In the case of `CNCc1ccc(-c2[nH]c3cc(F)cc4c3c2CCNC4=O)cc1` + Nc1ccc(C#CCN(C(=O)Cc2ncc(C(F)(F)F)cc2C(F)(F)F)c2ccc(F)cc2)nn1, the IC50 (second compound 0.0316 µM) is reported as greater than 10000 nM, the IC50 (second compound 0.1 µM) is reported as greater than 10000 nM and the IC50 (second compound 0.316 µM) is reported as greater than 10000 nM. It also gave an IC50 (second compound 1 µM) greater than 10000 nM, an IC50 (second compound 3.16 µM) greater than 10000 nM and an IC50 (second compound 10 µM) greater than 10000 nM. For the same compound, the viability, T/C [3] was 108%, the viability, T/C [4] was 107% and the viability, T/C [5] was 109%. It also gave a viability, T/C [6] of 122%, a viability, T/C [37] of 110% and a viability, T/C [38] of 103%. For the same compound, the viability, T/C [9] was 115%, the viability, T/C [10] was 117% and the viability, T/C [11] was 99.8%. It also gave a viability, T/C [12] of 105%, a viability, T/C [39] of 109% and a viability, T/C [40] of 109%. The viability, T/C [15] was 106%, the viability, T/C [16] was 107% and the viability, T/C [17] was 96.4%. It also gave a viability, T/C [18] of 95.7%, a viability, T/C [41] of 119% and a viability, T/C [42] of 129%. It also gave a viability, T/C [21] of 113%, a viability, T/C [22] of 111% and a viability, T/C [23] of 94.4%. For the same compound, the viability, T/C [24] was 102%, the viability, T/C [43] was 129% and the viability, T/C [44] was 114%. It also gave a viability, T/C [27] of 106%, a viability, T/C [28] of 105% and a viability, T/C [29] of 110%. The viability, T/C [30] was 95.9%, the viability, T/C [45] was 124% and the viability, T/C [46] was 124%. It also gave a viability, T/C [33] of 107%, a viability, T/C [34] of 96.2% and a viability, T/C [35] of 93.1%. The viability, T/C [36] was 103%, the viability, T/C [47] was 102% and the viability, T/C [48] was 94.1%.

Compound `COc1cccc(OCCCN)c1-c1cc(Nc2cnc(C#N)cn2)n[nH]1` + Nc1ccc(C#CCN(C(=O)Cc2ncc(C(F)(F)F)cc2C(F)(F)F)c2ccc(F)cc2)nn1 has an IC50 (second compound 0.0316 µM) of 147 nM, an IC50 (second compound 0.1 µM) of 97.4 nM and an IC50 (second compound 0.316 µM) of 96.8 nM. It also gave an IC50 (second compound 1 µM) of 79.5 nM, an IC50 (second compound 3.16 µM) of 70.6 nM and an IC50 (second compound 10 µM) of 29.4 nM. It also gave a viability, T/C [1] of 96.7%, a viability, T/C [2] of 129% and a viability, T/C [3] of 78.6%. It also gave a viability, T/C [4] of 61.2%, a viability, T/C [5] of 40.2% and a viability, T/C [6] of 42.6%. The viability, T/C [7] was 106%, the viability, T/C [8] was 107% and the viability, T/C [9] was 84.9%. It also gave a viability, T/C [10] of 49.2%, a viability, T/C [11] of 51.6% and a viability, T/C [12] of 42.3%. It also gave a viability, T/C [13] of 111%, a viability, T/C [14] of 97.5% and a viability, T/C [15] of 67%. It also gave a viability, T/C [16] of 51.8%, a viability, T/C [17] of 40% and a viability, T/C [18] of 35.5%. For the same compound, the viability, T/C [19] was 98.3%, the viability, T/C [20] was 111% and the viability, T/C [21] was 72.2%. The viability, T/C [22] was 51.6%, the viability, T/C [23] was 41.8% and the viability, T/C [24] was 37.2%. For the same compound, the viability, T/C [25] was 115%, the viability, T/C [26] was 79.6% and the viability, T/C [27] was 63.9%. It also gave a viability, T/C [28] of 41.7%, a viability, T/C [29] of 37% and a viability, T/C [30] of 46.6%. It also gave a viability, T/C [31] of 121%, a viability, T/C [32] of 75.1% and a viability, T/C [33] of 48.9%. For the same compound, the viability, T/C [34] was 38%, the viability, T/C [35] was 32.3% and the viability, T/C [36] was 35.7%.

Work on `O=C(c1cc(Cc2n[nH]c(=O)c3ccccc23)ccc1F)N1CCN(C(=O)C2CC2)CC1` + Nc1ccc(C#CCN(C(=O)Cc2ncc(C(F)(F)F)cc2C(F)(F)F)c2ccc(F)cc2)nn1 yielded an IC50 (second compound 0.0316 µM) greater than 10000 nM, an IC50 (second compound 0.1 µM) greater than 10000 nM and an IC50 (second compound 0.316 µM) greater than 10000 nM. For the same compound, the IC50 (second compound 1 µM) was greater than 10000 nM, the IC50 (second compound 3.16 µM) was greater than 10000 nM and the IC50 (second compound 10 µM) was greater than 10000 nM. For the same compound, the viability, T/C [3] was 120%, the viability, T/C [4] was 96.6% and the viability, T/C [5] was 92.4%. For the same compound, the viability, T/C [6] was 91.7%, the viability, T/C [37] was 107% and the viability, T/C [38] was 95.6%. For the same compound, the viability, T/C [9] was 94%, the viability, T/C [10] was 105% and the viability, T/C [11] was 97.2%. The viability, T/C [12] was 95.3%, the viability, T/C [39] was 112% and the viability, T/C [40] was 88%. It also gave a viability, T/C [15] of 111%, a viability, T/C [16] of 122% and a viability, T/C [17] of 106%. The viability, T/C [18] was 105%, the viability, T/C [41] was 97.2% and the viability, T/C [42] was 84.6%. It also gave a viability, T/C [21] of 105%, a viability, T/C [22] of 95.4% and a viability, T/C [23] of 100%. It also gave a viability, T/C [24] of 110%, a viability, T/C [43] of 109% and a viability, T/C [44] of 85.3%. It also gave a viability, T/C [27] of 103%, a viability, T/C [28] of 96.7% and a viability, T/C [29] of 94.8%. The viability, T/C [30] was 113%, the viability, T/C [45] was 93.8% and the viability, T/C [46] was 71%. It also gave a viability, T/C [33] of 89.1%, a viability, T/C [34] of 98.5% and a viability, T/C [35] of 113%. For the same compound, the viability, T/C [36] was 88.8%, the viability, T/C [47] was 99.4% and the viability, T/C [48] was 63.5%.
